{
  "source": "patent US7399771B2",
  "about": "“Piperidine derivatives as CCR5 inhibitors” (Novartis AG, priority 2002, dated 2008)",
  "key": {"[1]": {"target": "T1, Human CCR5 (Homo sapiens, UniProt P51681)", "T1 construct": "expressed in transfected cells", "T1 sequence (P51681 whole entry)": "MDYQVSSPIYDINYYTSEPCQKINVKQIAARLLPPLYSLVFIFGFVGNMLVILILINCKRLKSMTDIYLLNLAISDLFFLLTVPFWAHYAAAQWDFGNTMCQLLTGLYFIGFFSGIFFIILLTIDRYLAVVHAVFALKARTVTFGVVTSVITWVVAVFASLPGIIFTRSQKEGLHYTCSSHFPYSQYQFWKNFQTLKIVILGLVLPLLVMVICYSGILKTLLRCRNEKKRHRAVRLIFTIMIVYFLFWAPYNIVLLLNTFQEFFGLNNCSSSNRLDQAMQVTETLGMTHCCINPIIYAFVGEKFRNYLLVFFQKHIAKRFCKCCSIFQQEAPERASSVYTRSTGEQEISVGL", "experiment": "CCR5 functional assay - Ca2+ mobilization in CHO K1 CCR5 transfectants", "format": "cell-based", "protocol": "b) CCR5 Functional Assay—Ca^2+ Mobilization Human CCR5 is used to generate stable transfectants in CHO K1 cells. These CCR5 transfectants are used for assessing Ca^2+ mobilization in response to stimulation by the CCR5 ligands MIP-1α, MIP-1β, HCC-1(9-74) or RANTES. For the assay the cells are loaded with a Ca^2+-sensitive fluorochrome (Fluo3 or Fluo4). Ligand concentrations between 0.01-100 nM are used to induce Ca^2+ mobilization which is monitored in a fluorometer with appropriate settings. To assess the activity of the compounds to be tested, a baseline fluorescence reading is taken after which the compounds at the desired concentration are added to the cells and fluorescence is further recorded for a certain time to assess whether compounds show agonistic effects. Next the agonist is added to the mixture and fluorescence monitored. The inhibition of Ca^2+ flux in the presence of the compounds to be tested is calculated from the inhibition of maximal fluorescence induced by the agonist. IC50 values are calculated from dose-response curves obtained with the compounds."}, "[2]": {"target": "T1, Human CCR5", "experiment": "CCR5 membrane binding assay ([I-125]MIP-1α radioligand, membranes of CHO K1 transfectants)", "conditions": "membranes of CHO K1 cells transfected with human CCR5; ligand 125-I MIP-1α", "protocol": "a) CCR5 Membrane Binding Assay\nHuman CCR5 is used to generate stable transfectants in CHO K1 cells. Membranes prepared from these CCR5 transfectants are used in a radioligand binding assay using 125-I MIP-1α as a ligand and the compounds of formula I are tested for inhibitory activity."}},
  "note": "pIC50: −log10 of the molar value.",
  "data": [
    {"smiles": "Cc1cc[n+]([O-])c(C)c1C(=O)N1CCC(C)(N2CCC(N(c3ccccc3)c3ccccn3)CC2)CC1", "note": "[Example 12, (2,4-Dimethyl-1-oxy-pyridin-3-yl)-[4′-methyl-4-(phenyl-pyridin-2-yl-amino)-[1,4′]bipiperidinyl-1′-yl]methanone]", "values": [
      {"measurement": "pIC50", "setting": "[1]", "value": 7.54}
    ]},
    {"smiles": "Cc1nc(CN(c2ccc(Cl)cc2)C2CCN(C3(C)CCN(C(=O)c4c(C)cccc4C)CC3)CC2)cs1", "note": "[Example 32]", "values": [
      {"measurement": "pIC50", "setting": "[2]", "value": 9.30}
    ]},
    {"smiles": "Cc1cc[n+]([O-])c(C)c1C(=O)N1CCC(C)(N2CCC(N(Cc3ccsc3)c3ccccc3)CC2)CC1", "note": "[Example 36, (2,4-Dimethyl-1-oxy-pyridin-3-yl)-[4′-methyl-4-(phenyl-thiophen-3-ylmethyl-amino)-[1,4′]bipiperidinyl-1′-yl]-methanone]", "values": [
      {"measurement": "pIC50", "setting": "[1]; CHO K1 CCR5 transfectants, Fluo3 or Fluo4, agonist MIP-1α, MIP-1β, HCC-1(9-74) or RANTES, read-out: IC50, inhibition of Ca2+ flux", "value": 8.10}
    ]}
  ]
}
